One assay deals with Truncated C-domain ACE. Description: fluorimetric ACE activity assay, truncated C-domain. It is filed as biochemical. To be noted: at micromolar concentrations under identical assay conditions.
Another assay has as its target N-domain (ACE). The settings on record: read-out: Ki, N-domain, ref [20],[21]; cited from earlier work.
The next assay has as its system C-domain of ACE. The settings on record: ref [20],[21], cited from earlier work.

Truncated C-domain ACE, sequence (P12821 643-1222 limits assumed): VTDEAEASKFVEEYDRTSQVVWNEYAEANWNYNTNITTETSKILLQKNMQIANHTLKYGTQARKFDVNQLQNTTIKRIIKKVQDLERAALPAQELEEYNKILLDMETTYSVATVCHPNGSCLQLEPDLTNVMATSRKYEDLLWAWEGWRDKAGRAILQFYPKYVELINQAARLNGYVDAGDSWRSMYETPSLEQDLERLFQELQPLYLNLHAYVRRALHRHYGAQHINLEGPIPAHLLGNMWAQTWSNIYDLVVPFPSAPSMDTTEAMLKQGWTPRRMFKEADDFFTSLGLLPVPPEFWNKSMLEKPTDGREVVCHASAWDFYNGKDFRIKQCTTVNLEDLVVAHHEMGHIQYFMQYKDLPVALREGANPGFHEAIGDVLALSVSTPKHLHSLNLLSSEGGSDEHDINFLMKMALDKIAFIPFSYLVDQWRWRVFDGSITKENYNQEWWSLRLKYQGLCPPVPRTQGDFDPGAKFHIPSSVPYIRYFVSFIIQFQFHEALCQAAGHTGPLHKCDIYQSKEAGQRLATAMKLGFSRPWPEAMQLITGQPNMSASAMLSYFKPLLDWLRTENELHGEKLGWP

As a reminder, the Ki is a measure of affinity in units of concentration, obtained from inhibition or displacement. In the case of “(2-(((R)-1-(((Benzyloxy)carbonyl)amino)-2-phenylethyl)(hydroxy)phosphoryl)cyclopentane-1-carbonyl)-L-tryptophan [RXPA380]”, the “Inhibition of C-domain by parent (in words)” value in the assay on Truncated C-domain ACE is “completely inhibits the C-domain at micromolar concentrations”. Besides, the Ki on N-domain (ACE) was 10 µM; at C-domain of ACE (read-out: Ki, C-domain, ACE C-domain), 0.003 µM. Further, the “potency and selectivity for C-domain of ACE (in words)” value in the assay with C-domain of ACE (C-domain versus N-domain) was “the most potent and selective C domain of ACE”.

These data come from publication PMC9535653 (ACS Omega, 2022).
